Laboratory results as given in patent publication US11926640B2, “Prodrugs of glutamine analogs” (THE JOHNS HOPKINS UNIVERSITY, priority 2015, dated 2024).
Entries after “also recorded” stand apart in the source; their conditions may differ. Structures can show the parent of a compound that is named as a salt.

Experiments:
[1] = in vitro metabolic stability in monkey plasma; conditions: for PLASMA STABILITY Monkey: prodrug remaining within the 60 min incubation time; for stability in monkey plasma (in words): 30 min and 60 min
[2] = in vitro metabolic stability in mouse plasma; conditions: for PLASMA STABILITY Mouse: prodrug remaining within the 60 min incubation time; for stability in mouse plasma (in words): 30 min and 60 min
[3] = in vitro metabolic stability in human plasma; conditions: for PLASMA STABILITY Human: prodrug remaining within the 60 min incubation time; for stability in human plasma (in words): 30 min and 60 min
[4] = chemical stability (cyclization to diazo-imine, acidic pH); assay type: physicochemical
Description: Chemistry. Scheme 9 outlines the synthesis and characterization of the ester based prodrugs 20 and 3 of DON and their subsequent cyclization to novel diazo-imines 9a-b. The pyroglutamate esters 6a-b (D'Andrea, et al., 2008) were FMOC-protected to afford compounds 18 and 1. Formation of the diazoketones 19 and 2 was accomplished using TMS diazomethane in good yield. Rapid deprotection with piperidine afforded the ester based prodrugs 20 and 3. Unexpectedly […] cyclization was observed even under mild conditions (e.g. stirring in chloroform at room temperature) affording the novel diazo-imines 9a and 9b. It is believed that this is the first example of this functional group being described in the chemical literature.

[5] = in vitro liver microsomal stability, pig; conditions: pig microsomes
[6] = in vitro liver microsomal stability, human; conditions: human microsomes
[7] = 5-day i.v. toxicity comparison of DON and 38 in pigs; assay type: in vivo; conditions: at equivalent PBMC exposures
[8] = in vitro metabolic stability in pig plasma; conditions: 30 min and 60 min
[9] = in vitro metabolic stability in dog plasma; assay type: in vitro ADME; conditions: 30 min and 60 min
Procedure: Percentage remaining was calculated in the following manner.

[10] = DON release in mouse plasma after oral administration of prodrugs; assay type: in vivo; conditions: mice, p.o., 30 minutes and 5 hours after dosing, compared to DON
Procedure: Procedure for Pharmacokinetic analysis for DON release from its prodrugs: DON is extracted from samples (50 μL) with 250 μL methanol containing Glutamate-d5 (10 μM ISTD) by vortexing in low retention tubes. Samples are centrifuged at 16,000×g for 5 minutes to precipitate proteins. Supernatants (200 μL) are moved to new tube and dried at 45° C. under vacuum (approximately 1 hour). To each tube, 50 μL of 0.2 M sodium bicarbonate buffer (pH 9.0) and 100 μL dabsyl chloride stock is added. After vortexing, samples are incubated at 60° C. for 15 minutes to derivatize.

[11] = plasma and CSF pharmacokinetics of DON in swine after i.v. infusion; assay type: in vivo, Göttingen×Yucutan miniature swine; conditions: 60 min post-administration
Procedure: Compound: Compound 47 was dissolved in a sterile saline containing 5% ethanol and 5% Tween 80 on the date of administration.
Swine: Swine studies were conducted under a protocol approved by the Johns Hopkins Animal Care and Use Committee. Adult, female Göttingen×Yucutan miniature swine (Massachusetts General Hospital, MA) were housed in Johns Hopkins University facilities accredited by the Association for Assessment and Accreditation of Laboratory Animal Care International in compliance with the Animal Welfare Act, Animal Welfare Regulations, and the Public Health Service Policy on the Humane Care and Use of Laboratory Animals. Animals were maintained on a 14-h light and 10-h dark schedule, provided ad libitum water and a commercial miniswine diet (Teklad, Madison, WI) with environmental enrichment (fruit/vegetables) twice daily.

MC38 colon cancer = assay: MC38 tumor model; assay type: in vivo, mice; conditions: single agent

## CCOC(=O)[C@H](CCC(=O)C=[N+]=[N-])NC(=O)OC(C)OC(=O)C(C)(C)C (mixture of isomers) [Compound 32, Ethyl 6-diazo-2-(((1-(pivaloyloxy)ethoxy)carbonyl)amino)-5-oxohexanoate]
[1]
  PLASMA STABILITY Monkey: 75%
[2]
  PLASMA STABILITY Mouse: 0%
[3]
  PLASMA STABILITY Human: 88%

## CC(C)OC(=O)[C@@H]1CCC(C=[N+]=[N-])=N1 (stereo in doubt) [Compound 9b, Isopropyl 5-(diazomethyl)-3,4-dihydro-2H-pyrrole-2-carboxylate]
[4]
  chemical stability (in words): chemically stable even at acidic pH

## CC(C)OC(=O)[C@H](CCC(=O)C=[N+]=[N-])NC(=O)[C@@H](N)Cc1c[nH]c2ccccc12 (stereo in doubt) [Compound 38, Isopropyl 2-(2-amino-3-(1H-indol-3-yl)propanamido)-6-diazo-5-oxohexanoate]
[1]
  PLASMA STABILITY Monkey: 10%
[5]
  liver microsomal stability (in words): moderate-high stability
[6]
  liver microsomal stability (in words): moderate-high stability
[2]
  PLASMA STABILITY Mouse: 0%
[7]
  DON delivered to GI tissues (in words): less DON to GI tissues
[3]
  PLASMA STABILITY Human: 30%

## CC(C)OC(=O)C(N)CCC(=O)C=[N+]=[N-] (centres unmarked) [Compound 3, Isopropyl 2-amino-6-diazo-5-oxohexanoate]
[4]
  chemical stability (in words): chemical instability; also recorded: unstable

## CC(C)OC(=O)[C@H](CCC(=O)C=[N+]=[N-])NP(=O)(Oc1ccccc1)Oc1ccccc1 [Compound 4, Isopropyl 6-diazo-2-((diphenoxyphosphoryl)amino)-5-oxohexanoate]
[1]
  stability in monkey plasma (in words): stable
[8]
  stability in pig plasma (in words): stable
[2]
  stability in mouse plasma (in words): unstable
[3]
  stability in human plasma (in words): stable

## CC(C)OC(=O)C(CCC(=O)C=[N+]=[N-])NP(=O)(NC(CCC(=O)C=[N+]=[N-])C(=O)OC(C)C)Oc1ccccc1 (centres unmarked) [Compound 7, 1-methylethyl 2,6-bis[4-(1λ^5-diazynylidene)-3-oxobutyl]-9-methyl-7-oxo-4-phenoxy-8-oxa-3,5-diaza-4-phosphadecan-1-oate 4-oxide]
[1]
  stability in monkey plasma (in words): stable
[8]
  stability in pig plasma (in words): stable
[2]
  stability in mouse plasma (in words): unstable
[3]
  stability in human plasma (in words): stable

## CC(C)C[C@H](N)C(=O)N[C@@H](CCC(=O)C=[N+]=[N-])C(=O)OC(C)C [Compound 9, Isopropyl 2-(2-amino-4-methylpentanamido)-6-diazo-5-oxohexanoate]
[1]
  stability in monkey plasma (in words): unstable
  PLASMA STABILITY Monkey: 1%
[5]
  liver microsomal stability (in words): moderate-high stability
[8]
  stability in pig plasma (in words): unstable
[6]
  liver microsomal stability (in words): moderate-high stability
[2]
  stability in mouse plasma (in words): unstable
  PLASMA STABILITY Mouse: 0%
[3]
  stability in human plasma (in words): unstable
  PLASMA STABILITY Human: 1%
[9]
  stability in dog plasma (in words): unstable

## CCOC(=O)[C@@H]1CCC(C=[N+]=[N-])=N1 [Compound 9a, Ethyl 5-(diazomethyl)-3,4-dihydro-2H-pyrrole-2-carboxylate]
[4]
  chemical stability (in words): chemically stable even at acidic pH

## Cc1oc(=O)oc1COC(=O)N[C@@H](CCC(=O)C=[N+]=[N-])C(=O)OC(C)C [Compound 13, 1-Methylethyl 6-(1λ^5-diazynylidene)-N-{[(5-methyl-2-oxo-1,3-dioxol-4-yl)methoxy]carbonyl}-5-oxo-L-norleucinate]
[1]
  PLASMA STABILITY Monkey: 0%
[2]
  PLASMA STABILITY Mouse: 0%
[3]
  PLASMA STABILITY Human: 0%

## CCOC(=O)[C@@H](N)CCC(=O)C=[N+]=[N-] [Compound 20, Ethyl 2-amino-6-diazo-5-oxohexanoate]
[4]
  chemical stability (in words): chemical instability; also recorded: unstable

## C[C@H](N)C(=O)N[C@@H](CCC(=O)C=[N+]=[N-])C(=O)O [Compound 23, 2-(2-Aminopropanamido)-6-diazo-5-oxohexanoic acid]
[10]
  DON release / exposure in mouse plasma upon oral administration (in words): little DON release

## CC(C)C[C@H](N)C(=O)N[C@@H](CCC(=O)C=[N+]=[N-])C(=O)O [Compound 26, 2-(2-Amino-4-methylpentanamido)-6-diazo-5-oxohexanoic acid triethylammonium salt]
[10]
  DON release / exposure in mouse plasma upon oral administration (in words): some release

## CC(OC(=O)N[C@@H](CCC(=O)C=[N+]=[N-])C(=O)O)OC(=O)C(C)C (some centres unmarked) [Compound 29, 6-Diazo-2-(((1-(isobutyryloxy)ethoxy)carbonyl)amino)-5-oxohexanoic acid triethylammonium salt]
[10]
  DON release / exposure in mouse plasma upon oral administration (in words): little DON release

## CC(OC(=O)N[C@@H](CCC(=O)C=[N+]=[N-])C(=O)O)OC(=O)C(C)(C)C (some centres unmarked) [Compound 30, 6-Diazo-2-(((1-(pivaloyloxy)ethoxy)carbonyl)amino)-5-oxohexanoic acid triethylammonium salt]
[10]
  DON release / exposure in mouse plasma upon oral administration (in words): little DON release

## CCOC(=O)[C@H](CCC(=O)C=[N+]=[N-])NC(=O)[C@@H](N)Cc1c[nH]c2ccccc12 [Compound 34, Ethyl 2-(2-amino-3-(1H-indol-3-yl)propanamido)-6-diazo-5-oxohexanoate]
[1]
  PLASMA STABILITY Monkey: 4%
[2]
  PLASMA STABILITY Mouse: 0%
[3]
  PLASMA STABILITY Human: 12%

## CCOC(=O)[C@H](CCC(=O)C=[N+]=[N-])NC(=O)OCc1oc(=O)oc1C [Compound 36, Ethyl 6-diazo-2-((((5-methyl-2-oxo-1,3-dioxol-4-yl)methoxy)carbonyl)amino)-5-oxohexanoate]
[1]
  PLASMA STABILITY Monkey: 0%
[2]
  PLASMA STABILITY Mouse: 0%
[3]
  PLASMA STABILITY Human: 0%

## CC(C)OC(=O)[C@H](CCC(=O)C=[N+]=[N-])NC(=O)OCOC(=O)C(C)(C)C [Compound 42, Isopropyl 6-diazo-5-oxo-2-((((pivaloyloxy)methoxy)carbonyl)amino) hexanoate]
[1]
  PLASMA STABILITY Monkey: 0%
[2]
  PLASMA STABILITY Mouse: 0%
[3]
  PLASMA STABILITY Human: 9%

## CC(C)OC(=O)[C@H](CCC(=O)C=[N+]=[N-])NC(=O)OC(OC(=O)C(C)(C)C)c1ccccc1 (some centres unmarked) [Compound 47, Isopropyl 6-diazo-5-oxo-2-(((phenyl(pivaloyloxy)methoxy)carbonyl)amino) hexanoate]
[11]
  CSF delivery of DON (in words): substantially higher amounts of DON to the CSF; also recorded: enhanced CSF delivery of DON
  CSF:plasma ratio of DON (in words): increased CSF-to-plasma ratios; also recorded: enhanced CSF:plasma ratio

## CC(=O)N[C@@H](Cc1c[nH]c2ccccc12)C(=O)N[C@@H](CCC(=O)C=[N+]=[N-])C(=O)OC(C)C [Compound 60, Isopropyl 2-(2-acetamido-3-(1H-indol-3-yl)propanamido)-6-diazo-5-oxohexanoate]
[5]
  liver microsomal stability (in words): moderate-high stability
[6]
  liver microsomal stability (in words): moderate-high stability
MC38 colon cancer
  antitumor efficacy in MC38 tumor model (in words): promoted tumor regression

## C=CCOC(=O)N[C@@H](CCC(=O)C=[N+]=[N-])C(=O)O [LTP 073]
[10]
  DON release / exposure in mouse plasma upon oral administration (in words): below the limit of quantitation
